# Laboratory results published in US20060135569A1, “Use of benzisoselenazolone compounds against ischemic myocardial damage” (priority 2002, published 2006).
# Marks after values point to notes of the source that are not given here.
# Tests used:
# [1] = test system: rats subjected to myocardial ischemia/reperfusion insult; test: Cardiac function and hemodynamics in rats subjected to myocardial ischemia/reperfusion; type: in vivo, rat; details: 30 mg/kg orally
# Method: Method: Male SD rats weighing 300-350 g were fasted for 12 hrs and anesthetized by i.p. treatment with 20% Urethane (0.5 ml/100 g, 1 g/kg). Polyethylene tubes (PE-50) were inserted into the left femoral artery, left femoral vein, right femoral vein and the left ventricle. The left femoral artery was cannulated for blood collection, and the left femoral vein was cannulated for liquid compensation, the right femoral artery was cannulated for blood pressure detection, the left ventricle was cannulated for ventricular pressure detection, left femoral artery and ventricle were cannulated and the catheter was linked with pressure transducer by triplet. Signals were acquired by oscillograph and multi-channel biodynamic recorder linked with the pressure transducer. Rats in drug-treated group were orally treated with IMM-004 at 30 mg/kg, while rats in vehicle control group was orally treated with an equal volume of vehicle (PEG). Dissect the trachea and artificial respiration was performed via respirator after thoracotomy (2 ml/100 g). A left thoracotomy was performed from the forth to fifth intercostals space by cutting off the forth and fifth rib 2 mm from the left border of sternum, and the pericardium was opened to expose the heart. A 3.0 silk ligature was placed under the left anterior descending coronary artery. The heart was taken back to the chest and allowed to stabilize for 10 min. The ends of the suture were threaded through a polyethylene tube (3×8 mm) to form a snare. Pull the ends of the suture taut and clamp the snare with a hemostat to occlude the coronary artery. Coronary artery occlusion was verified by epicardial cyanosis and subsequent decrease in arterial blood pressure. Reprefusion of the heart was initiated via unclamping the hemostat and loosening the snare for 15 min. Left ventricular systolic pressure (LVSP), left ventricular end-diastolic pressure (LVEDP), and maximum rate of left ventricular pressure (±dp/dtmax), artery systolic pressure (SP), artery diastolic pressure (DP), mean artery pressure (MAP) and heart rate (HR) were continuously recorded every 10 min before and after thoracotomy and during the period of ischemia (15 min) and reperfusion (1 h).
# [2] = Acute toxicity study in mice; type: in vivo; details: male, KM, mouse, in vivo; oral, mice; read-out: LD50 (50% lethal dose)
# Method: Acute toxicity studies were performed with IMM-004 and IMM-127 (synthesized by ourselves). The compound was provided as powder, which was milled and suspended in 0.5% carboxymethylcellulose sodium (CMC—Na) before use.
# Male KM mice weighting 19±2 g were housed for an adaptation before use. Mice were randomly divided into groups, and each group consists of 10 animals. Mice were all fasted for 14 hrs before the administration of the tested compounds. Activity of mice in high dose group was reduced 30 min after the administration. 24 h after the administration, mice in each group were restored to normal. Mice were observed daily for a period of 7 days after the administration.
# [3] = test system: acute myocardial ischemia in anesthetized dogs; test: Acute myocardial ischemia and infarction in anesthetized dogs; type: in vivo, dog
# Method: Dogs were divided into three groups: 1, vehicle control group, PEG 1 ml/kg, n=5; 2, dilthiazem group, 5 mg/kg, n=5; 3, IMM-004 group, 30 mg/kg, n=5. The tested drugs were prepared in distilled water at volume of 1 ml/kg. The tested items were administrated via duodenum by animals.
# [4] = test system: arrhythmia induced by ischemia/reperfusion insults in anesthetized rats; test: Ischemia/reperfusion arrhythmia in anesthetized rats, oral administration; type: in vivo, rat; details: for protective effect: incidence/duration of VT, VF, duration of ventricular arrhythmic / protective effect: incidence/duration of VT, duration of ventricular arrhythmic: rats; for protective effect: incidence/duration of VT, duration of ventricular arrhythmic: 100 mg/kg orally
# Method: IMM-004 and IMM-127 were dissolved in the solution of ethanol and PEG (ethanol: PEG (v/v)=1:9). Rats were orally administrated the compounds at volume of 10 ml/Kg. The left anterior descending coronary artery was ligated in rats for 15 min at 60 min after the administration, and then the reprefusion was achieved.
# Arrhythmic potency induced by myocardial insults was used to assess the potential protective effect of the compounds.
# [5] = test system: normal rats; test: Cardiac function and hemodynamics in normal rats; type: in vivo, rat; details: 30 mg/kg orally; normal anesthetized rats
# Method: Method: Male SD rats, weighing 300-350 g were fasted for 12 hrs and anesthetized by i.p. treatment with 20% Urethane (0.5 ml/100 g, 1 g/kg). Polyethylene tubes (PE-50) were inserted into the left femoral artery, left femoral vein, right femoral vein and the left ventricle. The left femoral artery was cannulated for blood collection, and the left femoral vein was cannulated for liquid compensation, the right femoral artery was cannulated for blood pressure detection, the left ventricle was cannulated for ventricular pressure detection, the left femoral artery and ventricle were cannulated and the catheter was linked with pressure transducer by triplet. Signals were acquired by oscillograph and multi-channel biodynamic recorder linked with the pressure transducer. Rats in drug-treating group were orally administered with IMM-004 at 30 mg/kg, while rats in vehicle control group was orally treated with equal volume of vehicle (PEG). Left ventricular systolic pressure (LVSP), left ventricular end-diastolic pressure (LVEDP), and maximum rate of left ventricular pressure (±dp/dtmax), artery systolic pressure (SP), artery diastolic pressure (DP), mean artery pressure (MAP) and heart rate (HR) were recorded 40 min after the administration. Signals were continuously recorded in every 10 min.
# [6] = N-BT staining, Dilthiazem 5 mg/kg, IMM-004 30 mg/kg, % according to b137
structure (smiles),measurement,setting,value
"O=c1c2cc(Cl)ccc2[se]n1-c1ccccn1 [IMM-004, 5-chloro-2-(2-pyridyl)-1,2-benz-isoselenazol-3(2H)-one]",+dp/dtmax,[1],about +110 mmHg/s
same,Heart rate,[1],not influenced
same,MAP,[1],80 mmHg
same,SBP,[1],100 mmHg
same,LVSP,[1]; decreased steadily from 120 mmHg,100 mmHg
same,LVEDP,[1]; equal to the baseline,about −6 mmHg
same,−dp/dtmax,[1]; reduced from 100 mmHg/s,70 mmHg/s
same,LD50 at 7 days,[2],> 5000 mg/kg
same,infarction size (of heart) decrease compared with the vehicle control,[3]; 30 mg/kg,69.18%
same,infarction size (of ventricle) decrease compared with the vehicle control,[3]; 30 mg/kg,67.94%
same,Σ-ST decreased by,"[3]; 30 mg/kg via duodenum, 180 min after administration",53.90±20.60%
same,severity of myocardial ischemia (Σ-ST),"[3]; 30 mg/kg via duodenum, 180 min after administration, from 325.20±55.95 mV",146.80±60.25 mV
same,Coronary flow (under heading arterial and venous blood oxygen content),"[3]; 30 mg/kg, 120 min and 180 min after administration, vs baseline",significantly increased
same,"Myocardial infarction size, % of heart","[3]; 30 mg/kg, N-BT staining",2.04±0.93%
same,"Myocardial infarction size, % of ventricular","[3]; 30 mg/kg, N-BT staining",5.08±2.00%
same,elevation of LDH activity,"[3]; 30 mg/kg, vs vehicle control",no effect
same,elevation of serum AST,"[3]; 30 mg/kg, vs vehicle control",significantly inhibited
same,elevation of serum CK,"[3]; 30 mg/kg, vs vehicle control",significantly inhibited
same,Coronary flow increase verse the baseline,"[3]; 30 min after treatment, 30 mg/kg",15.02±22.16%
same,Infarction area/ heart area,[3]; [6],2.04 ± 0.93
same,Infarction area/ventricle area,[3]; [6],5.08 ± 2.00
same,Infarction area mm^2,"[3]; N-BT staining, Dilthiazem 5 mg/kg, IMM-004 30 mg/kg, X ± SD",255.70 ± 58.2*** mm^2
same,"Myocardial infarction size, in words","[3]; N-BT staining, IMM-004 30 mg/kg, dilthiazem 5 mg/kg",significantly reduced
same,"Coronary flows, in words","[3]; after treatment, dilthiazem 5 mg/kg, IMM-004 30 mg/kg",significantly increased
same,"protective effect: incidence/duration of VT, VF, duration of ventricular arrhythmic",[4]; 10 mg/Kg orally,No protective effect
same,Occurrence time,[4]; 10 mg/Kg p.o.,9.3 ± 10.0 s
same,VE Duration time,[4]; 10 mg/Kg p.o.,4.7 ± 12.9 s
same,VE Incidence (%),[4]; 10 mg/Kg p.o.,100%
same,VF Duration time,[4]; 10 mg/Kg p.o.,8.8 ± 7.4 s
same,VF Incidence (%),[4]; 10 mg/Kg p.o.,22.2%
same,VT Duration time,[4]; 10 mg/Kg p.o.,30.2 ± 17.6 s
same,VT Incidence (%),[4]; 10 mg/Kg p.o.,88.9%
same,"protective effect: incidence/duration of VT, VF, duration of ventricular arrhythmic",[4]; 30 mg/Kg orally,all reduced
same,Occurrence time,[4]; 30 mg/Kg p.o.,19.6 ± 24.1 s
same,VE Duration time,[4]; 30 mg/Kg p.o.,0.4 ± 1.3 s
same,VE Incidence (%),[4]; 30 mg/Kg p.o.,66.7%
same,VF Duration time,[4]; 30 mg/Kg p.o.,3.3 ± 5.7 s
same,VF Incidence (%),[4]; 30 mg/Kg p.o.,11.1* %
same,VT Duration time,[4]; 30 mg/Kg p.o.,17.0 ± 12.6 s
same,VT Incidence (%),[4]; 30 mg/Kg p.o.,44.4** %
same,Occurrence time,[4]; 100 mg/Kg p.o.,16.4 ± 25.1 s
same,VE Duration time,[4]; 100 mg/Kg p.o.,5.5 ± 10.2 s
same,VE Incidence (%),[4]; 100 mg/Kg p.o.,66.7%
same,VF Duration time,[4]; 100 mg/Kg p.o.,3.9 ± 6.8 s
same,VF Incidence (%),[4]; 100 mg/Kg p.o.,33.3%
same,VT Duration time,[4]; 100 mg/Kg p.o.,22.7 ± 19.4 s
same,VT Incidence (%),[4]; 100 mg/Kg p.o.,55.5* %
same,"protective effect: incidence/duration of VT, duration of ventricular arrhythmic",[4],all reduced
same,"LVSP, LVEDP, ±dp/dtmax, SP, DP, MAP and heart rate (HR)",[5],not significantly influenced
"O=c1c2cc(F)ccc2[se]n1-c1ccccn1 [IMM-127, 5-fluoro-2-(2-pyridyl)-1,2-benz-isoselenazol-3(2H)-one]","protective effect: incidence/duration of VT, VF, duration of ventricular arrhythmic",[4]; 10 mg/Kg orally,significantly reduced
same,Occurrence time,[4]; 10 mg/Kg p.o.,15.5 ± 21.5 s
same,VE Duration time,[4]; 10 mg/Kg p.o.,2.5 ± 6.4 s
same,VE Incidence (%),[4]; 10 mg/Kg p.o.,100%
same,VF Duration time,[4]; 10 mg/Kg p.o.,6.6 ± 7.2 s
same,VF Incidence (%),[4]; 10 mg/Kg p.o.,22.2%
same,VT Duration time,[4]; 10 mg/Kg p.o.,32.1 ± 26.1 s
same,VT Incidence (%),[4]; 10 mg/Kg p.o.,66.7%
same,"protective effect: incidence/duration of VT, VF, duration of ventricular arrhythmic",[4]; 30 mg/Kg orally,all reduced
same,Occurrence time,[4]; 30 mg/Kg p.o.,9.6 ± 9.2 s
same,VE Duration time,[4]; 30 mg/Kg p.o.,0.2 ± 0.5 s
same,VE Incidence (%),[4]; 30 mg/Kg p.o.,100%
same,VF Duration time,[4]; 30 mg/Kg p.o.,3.2 ± 5.5 s
same,VF Incidence (%),[4]; 30 mg/Kg p.o.,11.1* %
same,VT Duration time,[4]; 30 mg/Kg p.o.,18.0 ± 11.4 s
same,VT Incidence (%),[4]; 30 mg/Kg p.o.,66.7%
same,Occurrence time,[4]; 100 mg/Kg p.o.,9.0 ± 19.7 s
same,VE Duration time,[4]; 100 mg/Kg p.o.,2.2 ± 63 s
same,VE Incidence (%),[4]; 100 mg/Kg p.o.,88.9%
same,VF Duration time,[4]; 100 mg/Kg p.o.,5.1 ± 7.8 s
same,VF Incidence (%),[4]; 100 mg/Kg p.o.,22.2%
same,VT Duration time,[4]; 100 mg/Kg p.o.,31.1 ± 21.3 s
same,VT Incidence (%),[4]; 100 mg/Kg p.o.,44.4** %
same,"protective effect: incidence/duration of VT, duration of ventricular arrhythmic",[4],reduced
